Assay results reported in patent US6727066B2, “Genes expressed in treated human C3A liver cell cultures” (Incyte Corporation, priority 2000, dated 2004).

System: human C3A liver cell cultures
Experiment: Microarray differential expression of cDNAs in treated human C3A liver cell cultures
Type: cell-based
Settings: change vs untreated C3A cells
Excerpt: Incyte clones represent template sequences derived from the LIFESEQ GOLD assembled human sequence database (Incyte Genomics). In cases where more than one clone was available for a particular template, the 5′-most clone in the template was used on the microarray. The GENEALBUM GEM series 1-6 microarrays (Incyte Genomics) contain 52,616 array elements which represent 17,472 annotated clusters and 35,144 unannotated clusters. The HUMAN GENOME GEM series 1-3 microarrays (Incyte Genomics) contain 28,626 array elements which represent 10,068 annotated clusters and 18,558 unannotated clusters. For the UNIGEM series microarrays (Incyte Genomics), Incyte clones were mapped to non-redundant Unigene clusters (Unigene database (build 46), NCBI; Shuler (1997) J Mol Med 75:694-698), and the 5′ clone with the strongest BLAST alignment (at least 90% identity and 100 bp overlap) was chosen, verified, and used in the construction of the microarray. The UNIGEM V microarray (Incyte Genomics) contains 7075 array elements which represent 4610 annotated genes and 2,184 unannotated clusters.
To construct microarrays, cDNAs were amplified from bacterial cells using primers complementary to vector sequences flanking the cDNA insert. […] Amplified cDNAs were then purified using […]-400 columns (APB). Purified cDNAs were immobilized on polymer-coated glass slides. Glass microscope slides (Corning, Corning N.Y.) were cleaned by ultrasound in 0.1% SDS and acetone, with extensive distilled water washes between and after treatments. Glass slides were etched in 4% hydrofluoric acid (VWR Scientific Products, West Chester Pa.), washed thoroughly in distilled water, and coated with 0.05% aminopropyl silane (Sigma Aldrich) in 95% ethanol. Coated slides were cured in a 110° C. oven. cDNAs were applied to the coated glass substrate using a procedure described in U.S. Pat. No. 5,807,522. One microliter of the cDNA at an average concentration of 100 ng/ul was loaded into the open capillary printing element by a high-speed robotic apparatus which then deposited about 5 nl of cDNA per slide.
Microarrays were UV-crosslinked using a […] UV-crosslinker (Stratagene), and then washed at room temperature once in 0.2% SDS and three times in distilled water. Non-specific binding sites were blocked by incubation of microarrays in 0.2% casein in phosphate buffered saline (Tropix, Bedford Mass.) for 30 minutes at 60° C. followed by washes in 0.2% SDS and distilled water as before.
Early confluent C3A cells (ATTC, Manassas Va.) were treated with captopril (0.5, 2, 48, and 60 μg/ml) for 1, 3, and 6 hours. Early confluent C3A cells were treated with enalapril (0.5, 2, 48, and 60 μg/ml) for 1, 3, and 6 hours. Early confluent C3A cells were treated with LY294002 (0.5, 2, 15, and 25 μg/ml) for 1, 3, and 6 hours. Early confluent C3A cells were starved of insulin for 3 days prior to treatment, then treated with LY294002 (10 μM) for 2, 24, 36, and 72 hours in the presence of insulin. Early confluent C3A cells were treated with DES (1, 10, and 100 μM) for 1, 3, and 6 hours. Early confluent C3A cells were treated with dexamethasone (1 and 20 μM) for 0, 2, 6, and 24 hours. Early confluent C3A cells were treated with MCA (0.5 and 10 μM) for 2, 6, and 24 hours. In all cases mRNA from untreated early confluent cells were prepared in parallel as described below.
Cells were harvested and lysed in 1 ml of TRIZOL reagent (5×10^6 cells/ml; Life Technologies). The lysates were vortexed thoroughly and incubated at room temperature for 2-3 minutes and extracted with 0.5 ml chloroform. The extract was mixed, incubated at room temperature for 5 minutes, and centrifuged at 15,000 rpm for 15 minutes at 4° C. The aqueous layer was collected and an equal volume of isopropanol was added.

C[C@@H]1C[C@H]2[C@@H]3CCC4=CC(=O)C=C[C@]4(C)[C@@]3(F)[C@@H](O)C[C@]2(C)[C@@]1(O)C(=O)CO [Dexamethasone]
expression level of cDNA clone 26474: −4.2
expression level of cDNA clone 63038: −2.36
expression level of cDNA clone 118501: 2.79
expression level of cDNA clone 167081: 2.14
expression level of cDNA clone 172023: −5.8
expression level of cDNA clone 237027: −2.85
expression level of cDNA clone 630625: 2.52
expression level of cDNA clone 990375: −2.5
expression level of cDNA clone 1379063: −3.42
expression level of cDNA clone 1381654: 2.57
expression level of cDNA clone 1441245: −2.3
expression level of cDNA clone 1448718: −3.1
expression level of cDNA clone 1468660: −3.3
expression level of cDNA clone 1559756: 2.47
expression level of cDNA clone 1616783: 2.55
expression level of cDNA clone 1619292: −4.4
expression level of cDNA clone 1623214: −2.25
expression level of cDNA clone 1630990: 2.86
expression level of cDNA clone 1696224: 2.83
expression level of cDNA clone 1786554: 2.66
expression level of cDNA clone 1833362: −3.7
expression level of cDNA clone 1834236: −2.3
expression level of cDNA clone 1846209: 2.2
expression level of cDNA clone 1890576: −2.5
expression level of cDNA clone 1975268: −3.35
expression level of cDNA clone 1998269: 2.44
expression level of cDNA clone 2046717: 2.8
expression level of cDNA clone 2048551: 2.91
expression level of cDNA clone 2120743: 3.25
expression level of cDNA clone 2123516: 2.66
expression level of cDNA clone 2160794: −2.51
expression level of cDNA clone 2195427: 2.3
expression level of cDNA clone 2343348: 2.18
expression level of cDNA clone 2470485: −2.8
expression level of cDNA clone 2513883: 3.93
expression level of cDNA clone 2660756: 2.21
expression level of cDNA clone 2757583: 4.93
expression level of cDNA clone 2822027: 3
expression level of cDNA clone 2921991: −2.95
expression level of cDNA clone 2925373: −2.63
expression level of cDNA clone 2933775: 4.32
expression level of cDNA clone 3028719: −2.6
expression level of cDNA clone 3084204: −2.47
expression level of cDNA clone 3109384: 2.6
expression level of cDNA clone 3170010: −3.67
expression level of cDNA clone 3284411: −2.4
expression level of cDNA clone 3715059: −3.17
expression level of cDNA clone 4091186: 2.45
expression level of cDNA clone 4508879: 2.86
expression level of cDNA clone 5399371: 2.63

CC(C)OC(=O)C(C)(C)Oc1ccc(C(=O)c2ccc(Cl)cc2)cc1 [Fenofibrate, fenofibrate]
expression level of cDNA clone 63038: −2.9
expression level of cDNA clone 280932: −2.67
expression level of cDNA clone 437481: 2.44
expression level of cDNA clone 443991: 2.47
expression level of cDNA clone 450856: 2.49
expression level of cDNA clone 452321: 3
expression level of cDNA clone 480791: −2.27
expression level of cDNA clone 630625: 3.95
expression level of cDNA clone 970905: −4.06
expression level of cDNA clone 1315663: −4.02
expression level of cDNA clone 1619292: −5
expression level of cDNA clone 1705208: 2.83
expression level of cDNA clone 1846463: 6.58
expression level of cDNA clone 1969563: 6.8
expression level of cDNA clone 1975268: −2.42
expression level of cDNA clone 2042056: 5.46
expression level of cDNA clone 2055569: −3.12
expression level of cDNA clone 2055867: −3.4
expression level of cDNA clone 2123516: 4.6
expression level of cDNA clone 2234853: −2.7
expression level of cDNA clone 2360580: −4.5
expression level of cDNA clone 2382195: −2.87
expression level of cDNA clone 2399162: −2.5
expression level of cDNA clone 2448149: −2.35
expression level of cDNA clone 2513883: 4.47
expression level of cDNA clone 2607921: −3.2
expression level of cDNA clone 2757583: 4.75
expression level of cDNA clone 2769888: −3.17
expression level of cDNA clone 2929484: −2.89
expression level of cDNA clone 2957205: 2.44
expression level of cDNA clone 3222802: 2.55
expression level of cDNA clone 3272165: −2.57
expression level of cDNA clone 4287327: −3.14
expression level of cDNA clone 4556538: 2.53
